Here are results for 48 compounds from patent publication EP0522203A1, “Protein from lactic acid bacteria” (PROBICOM RESEARCH B.V., priority 1991, dated 1993).

*1 amine or outer side, *2 acyl side, *3 side chain or, on linkers, in order; H or OH if unused. Where a SMILES comes first, the peptide text is derived from it. The star is where a group is joined. pNA = O=[N+]([O-])c1ccc(N*)cc1; Suc = O=C(CCC(=O)[*:2])[*:1]; Cbz = O=C(OCc1ccccc1)*; Bz = O=C(c1ccccc1)*

One assay deals with endopeptidase from L. lactis subsp. cremoris Wg2. The assay can be described thus: Substrate specificity: hydrolysis of peptides by the purified endopeptidase, analysed by thin layer chromatography. In kind it is biochemical. Further details: key to Activity: +: hydrolysis; -: no hydrolysis detectable.
Conditions: not given
In the case of `N[C@@H](Cc1ccc(O)cc1)C(=O)NCC(=O)NCC(=O)O` [Tyr-Gly-Gly, Tyrosyl-glycyl-glycine] (H-Tyr-Gly-Gly-OH), the Activity result was “-”.

For the compound `C[C@H](NC(=O)CCC(=O)O)C(=O)N[C@@H](C)C(=O)N[C@@H](C)C(=O)Nc1ccc([N+](=O)[O-])cc1` [Nsucc-Ala-Ala-Ala-pNA], the Activity entry was “-”.

Consider `CSCC[C@H](N)C(=O)NCC(=O)NCC(=O)O` [Met-Gly-Gly] (H-Met-Gly-Gly-OH), for which the Activity result was “-”.

On to `CC(C)C[C@H](NC(=O)[C@@H]1CCCN1C(=O)[C@H](C)NC(=O)[C@H](C)NC(=O)CCC(=O)O)C(=O)Nc1ccc([N+](=O)[O-])cc1` [Nsucc-Ala-Ala-Pro-Leu-pNA] (Suc-AAPL-pNA), for which the Activity result is listed as “-”.

For oxydized insulin β-chain, the Activity result is “+” and the “hydrolysis by the purified endopeptidase” value is recorded as “hydrolyzed”.

Consider Glucagon, for which the Activity result is listed as “+”.

As to `O=C(NCC(=O)N1CCC[C@H]1C(=O)O)c1ccccc1` [Bz-Gly-Pro] (Bz-Gly-Pro-OH), the Activity result is on record as “-”.

For `CC(C)C[C@H](NC(=O)[C@H](CC(C)C)NC(=O)[C@@H](N)CC(C)C)C(=O)O` [Leu-Leu-Leu] (H-Leu-Leu-Leu-OH), the Activity result is “-”.

Take `CC(C)C[C@H](NC(=O)[C@@H](N)CC(C)C)C(=O)O` [Leu-Leu]: the Activity result is recorded as “-”.

Consider `CC(C)[C@H](NC(=O)CN)C(=O)N[C@@H](Cc1ccccc1)C(=O)O` [Gly-Val-Phe] (H-Gly-Val-Phe-OH), for which the Activity result is on record as “-”.

On to `C[C@H](N)C(=O)N1CCC[C@H]1C(=O)Nc1ccc([N+](=O)[O-])cc1` [Ala-Pro-pNA] (H-Ala-Pro-pNA), for which the Activity result is “-”.

Turning to `C[C@H](N)C(=O)N[C@@H](C)C(=O)N[C@@H](C)C(=O)N[C@@H](C)C(=O)N[C@@H](C)C(=O)O` [Ala5], the Activity result is listed as “-”.

For the compound `CC(C)[C@H](NC(=O)[C@@H](N)Cc1ccccc1)C(=O)O` [Phe-Val] (H-Phe-Val-OH), the Activity entry is given as “-”.

Consider `CSCC[C@H](NC(=O)[C@H](Cc1ccccc1)NC(=O)CNC(=O)CNC(=O)[C@@H](N)Cc1ccc(O)cc1)C(=O)O` [Metenkaphalin, Tyrosyl-glycyl-glycyl-phenylalanyl-methionine], for which the Activity entry was “+”.

As to `NCCCC[C@H](NC(=O)CNC(=O)c1ccccc1)C(=O)O` [Bz-Gly-Lys] (Bz-Gly-Lys-OH), the Activity entry is “-”.

For the compound `NCC(=O)N1CCC[C@H]1C(=O)Nc1ccc([N+](=O)[O-])cc1` [Gly-Pro-pNA] (H-Gly-Pro-pNA), the Activity result is on record as “-”.

`C[C@H](NC(=O)[C@@H]1CCCN1C(=O)CN)C(=O)N1CCC[C@H]1C(=O)O` [Gly-Pro-Ala-Pro] (H-GPAP-OH): the Activity entry was “-”.

In the case of Neurotensin, the Activity result is “+”.

Regarding `NCC(=O)NCC(=O)O` [Gly-Gly] (H-Gly-Gly-OH), the Activity entry is reported as “-”.

For the compound `CC(C)C[C@H](NC(=O)OCc1ccccc1)C(=O)NCC(=O)NCC(=O)Nc1ccc([N+](=O)[O-])cc1` [Z-Leu-Gly-Gly-pNA] (Cbz-Leu-Gly-Gly-pNA), the Activity entry is recorded as “-”.

In the case of β-Casomorphin, the Activity entry is “-”.

As to `C[C@H](NC(=O)[C@H](Cc1ccccc1)NC(=O)OCc1ccccc1)C(=O)O` [Z-Phe-Ala], the Activity entry is “-”.

In the case of `CSCC[C@H](NC(=O)[C@@H](N)Cc1ccccc1)C(=O)O` [Phe-Met] (H-Phe-Met-OH), the Activity result is given as “-”.

For the compound `C[C@H](NC(=O)[C@@H]1CCCN1C(=O)OCc1ccccc1)C(=O)O` [Z-Pro-Ala] (Cbz-Pro-Ala-OH), the Activity result is “-”.

Regarding `C[C@H](N)C(=O)N[C@@H](C)C(=O)N[C@@H](C)C(=O)N[C@@H](C)C(=O)N[C@@H](C)C(=O)N[C@@H](C)C(=O)O` [Ala6], the Activity result is “-”.

The same assay, now with this note: chromogenic substrates: TLC, hydrolysis also measured at A410.
Consider `NCCCC[C@H](N)C(=O)Nc1ccc([N+](=O)[O-])cc1` [Lys-pNA], for which the Activity result was “-”.

In the case of `O=C(O)CCC(=O)N[C@@H](Cc1ccccc1)C(=O)Nc1ccc([N+](=O)[O-])cc1` [Nsucc-Phe-pNA], the Activity entry is “-”.

Staying with this assay, now noted: hydrolysis of the substrate by purified endopeptidase, analysed by TLC.
Regarding “β-Casein(184-202) (DMPIQAFLLYQEPVLGPVR; UniProt P02666 199-217, looked up, fragment)”, the Activity entry was “+”.

As for `CC(C)C[C@H](N)C(=O)NCC(=O)NCC(=O)O` [Leu-Gly-Gly] (H-Leu-Gly-Gly-OH), the Activity result is “-”.

For the compound `CSCC[C@H](NC(=O)[C@H](CC(C)C)NC(=O)CNC(=O)[C@H](Cc1ccccc1)NC(=O)[C@H](Cc1ccccc1)NC(=O)[C@H](CCC(N)=O)NC(=O)[C@H](CCC(N)=O)NC(=O)[C@@H]1CCCN1C(=O)[C@H](CCCCN)NC(=O)[C@@H]1CCCN1C(=O)[C@@H](N)CCCNC(=N)N)C(N)=O` [Substance P], the Activity entry is “+”.

Consider `NCC(=O)N1CCC[C@H]1C(=O)NCC(=O)NCC(=O)O` [Gly-Pro-Gly-Gly] (H-GPGG-OH), for which the Activity result is “-”.

As to “β-Casein(203-209) (GPFPIIV; UniProt P02666 218-224, looked up, fragment)”, the Activity result is given as “+”.

With “Bradykinin (RPPGFSPFR; Bradykinin; UniProt P01042 381-389, looked up)”, the Activity entry was “+”.

“β-Casein( 33- 48) (FQSEEQQQTEDELQDK; UniProt P02666 48-63, looked up, fragment)”: the Activity result was “-”.

Another assay relates to endopeptidase. Nature of the assay: Effect of potential inhibitors (chemical agents) on the endopeptidase activity (metenkaphalin hydrolysis, TLC). It counts as biochemical, L. lactis subsp. cremoris Wg2. Further details: key to Inhibition: +: Inhibition; -: No inhibition detectable.
Conditions: not given
For `CCN1C(=O)C=CC1=O` [N-Ethylmaleimide], the Inhibition entry is given as “-”.

On to `COC(CNC(=O)c1ccccc1OCC(=O)O)[CH2][Hg][OH]` (stereo not drawn) [Mersalyl, O-(3-hydroxymercuri-2-methoxypropyl)-carbamylphenoxyacetate], for which the Inhibition entry is listed as “-” and the “endopeptidase activity inhibited” value is listed as “did not have an effect on the activity”.

Turning to `O=S(=O)(O)c1ccc2c(N=Nc3ccccc3[As](=O)(O)O)c(O)c(S(=O)(=O)O)cc2c1` [Thorin], the Inhibition entry is on record as “-”.

For the compound `CC1=CC(=O)c2c(O)cccc2C1=O` [Plumbagin], the Inhibition entry is on record as “-” and the “restoration of the enzyme activity inhibited by β-mercaptoethanol” value is listed as “could not restore the enzyme activity”.

Turning to `O=C(O)c1cc[c]([Hg][Cl])cc1` [pCMB, p-chloromercuribenzoate], the Inhibition entry is recorded as “-” and the “endopeptidase activity inhibited” value is recorded as “did not have an effect on the activity”.

Turning to Hydroxylamine, the Inhibition entry is “-”.

On to `O=S(=O)(F)Cc1ccccc1` [PMSF, phenylmethylsulfonylfluoride], for which the Inhibition result was “+” and the “endopeptidase activity inhibited” value is “inhibited”.

Regarding `O=S(=O)(O)c1cc[c]([Hg][Cl])cc1` [pCMBS, p-chloromercuribenzenesulfonate], the Inhibition entry was “-” and the “endopeptidase activity inhibited” value is “did not have an effect on the activity”.

The same assay, now with this note: 1 mM chemical agent, purified enzyme 4 µg protein preincubated 10 min at 20°C; metenkaphalin 15 min at 30°C; TLC.
In the case of `N[C@@H](CSSC[C@H](N)C(=O)O)C(=O)O` [Cystine], the Inhibition entry is “-”.

As for `OCCS` [β-Mercaptoethanol], the Inhibition result was “+”.

Consider `c1cnc2c(c1)ccc1cccnc12` [1,10-phenanthroline], for which the Inhibition entry is “+”.

Take `O[C@H](CS)[C@H](O)CS` (racemic) [DTT, dithiothreitol]: the Inhibition entry was “-”.

As for `CCOC(=O)OC(=O)OCC` [DEPC], the Inhibition result is on record as “-”.

The same assay, now with this note: chemical agent 1.0 mM.
`c1cnc2c(c1)ccc1cccnc12` [1,10-phenanthroline]: the “endopeptidase activity inhibited” value is on record as “inhibited”.

As for `O[C@H](CS)[C@H](O)CS` (racemic) [DTT, dithiothreitol], the “endopeptidase activity inhibited” value is on record as “not”.

The assay is the same for the next values; noted with them: oxidizing reagents up to 5 mM.
For the compound oxidized gluta thione, the “restoration of the enzyme activity inhibited by β-mercaptoethanol” value is “could not restore the enzyme activity”.

Staying with this assay, now noted: β-mercaptoethanol.
For `OCCS` [β-Mercaptoethanol], the “reversibility of the inhibition of the enzyme” value is given as “irreversible”.

Staying with this assay, now noted: β-mercaptoethanol 1%.
For the compound `OCCS` [β-Mercaptoethanol], the “endopeptidase activity inhibited” value was “inhibited”.

The next assay relates to LEP I.
Assay: not given
The conditions noted are these: cited from earlier work.
oxydized insulin β-chain: the “hydrolysis by LEP I” value was “cannot hydrolyse”.

For Glucagon, the “hydrolysis by LEP I” value is “cannot hydrolyse”.
